Measured values taken from paper PMC9791652 (Journal of Medicinal Chemistry, 2022).
Values after ≈ are worked out from the molar mass of the structure shown. Where two headings read alike, the source gives them in different places.

Experiments:
[1] = tested on: noninfected zebrafish larvae; conditions: data not shown
[2] = tested on: M. marinum (expressing Wasabi) infected zebrafish larvae; assay type: in vivo; conditions: for lowest dose significantly prolonging survival of infected zebrafish: 4-day exposure in water, refreshed daily, 1 to 5 dpi
[3] = tested on: Mtb H37Rv NADH/NAD+ ratio; assay: Impact of TriSLa exposure on Mtb NADH and NAD+ levels; assay type: cell-based, Mycobacterium tuberculosis
[4] = tested on: streptomycin starved 18b nonreplicating Mtb (ss18b-lux); assay type: cell-based, Mycobacterium tuberculosis; conditions: for drop in bacterial counts (cfu) of ss18b-lux: 7 days of exposure; for bactericidal activity against nonreplicating ss18b-lux by cfu counting: 7 days of antibiotic exposure
[5] = tested on: Mtb H37Rv ATP levels; assay: Impact of TriSLa exposure on Mtb ATP levels; assay type: cell-based, Mycobacterium tuberculosis; conditions: 24 h exposure
[6] = physchem; conditions: pH 7.4
[7] = tested on: H37Rv; assay type: cell-based, Mycobacterium tuberculosis
[8] = tested on: Escherichia coliΔtolC (BW25113 ΔtolC); assay: organism not typed; assay type: cell-based
[9] = mouse liver microsomes

Compound	toxicity in noninfected zebrafish larvae [1]	lowest dose significantly prolonging survival of infected zebrafish [2] [µM]	ss18b-lux luminescence signal [4]	bactericidal activity against nonreplicating ss18b-lux by cfu counting [4]	bacterial ATP concentrations [5]	MIC [8] [µM]	further results
CC(C)[C@H]1CO[C@]23CCN(Cc4ccc(C(F)(F)F)nc4)C[C@H]2CCC(=O)N13 [Compound 13, (3S,7aR,11aR)-3-Isopropyl-9-[[6-(trifluoromethyl)-3-pyridyl]methyl]-2,3,6,7,7a,8,10,11-octahydrooxazolo[2,3-j][1,6]naphthyridin-5-one]	did not interfere with larval development or show any toxicity	1.2	–	–	–	–	–
CO[C@H]1/C=C/O[C@@]2(C)Oc3c(C)c(O)c4c(O)c(c(/C=N/N5CCN(C)CC5)c(O)c4c3C2=O)NC(=O)/C(C)=C\C=C\[C@H](C)[C@H](O)[C@@H](C)[C@@H](O)[C@@H](C)[C@H](OC(C)=O)[C@@H]1C [rifampicin]	–	–	time-dependent decrease in luminescence	bactericidal	–	–	Mtb NADH/NAD+ ratio relative to untreated bacteria [3]: decrease in NADH/NAD^+; drop in bacterial counts (cfu) of ss18b-lux ([4]; 0.6 μM, stated as similar to 11 and 12 at 4.8 μM): 1–2 log
CC(C)[C@H]1CO[C@]23CCN(Cc4ccc(OC(F)(F)F)cc4)C[C@H]2CCC(=O)N13 [Compound 12, (3S,7aR,11aR)-3-Isopropyl-9-[[4-(trifluoromethoxy)phenyl]methyl]-2,3,6,7,7a,8,10,11-octahydrooxazolo[2,3-j][1,6]naphthyridin-5-one]	did not interfere with larval development or show any toxicity	0.3	time-dependent decrease in luminescence	concentration-dependent killing	concentration-dependent shutdown in bacterial ATP concentrations	100 (≈ 41.2 µg/mL)	logD [6]: 3.4; bactericidal activity by cfu at 1× MIC [7]: bacteriostatic; drop in cfu after 1 week [7]: ~0.8 log; drop in cfu after 2 weeks [7]: ~2.0 log; bacterial load (fluorescence pixel count) in infected zebrafish ([2]; 0.5 μg/mL ([…]), 2–4 days of exposure): bacteriostatic; bacterial load (fluorescence pixel count) in infected zebrafish ([2]; 2 μg/mL (4.8 μM), between 2 and 4 days of exposure): significant decrease in the bacterial burden; infection foci in fluorescence images ([2]; 0.25 to 2 μg/mL (0.6–4.8 μM), 2 or 4-day treatment): fewer and less intense infection foci; drop in bacterial counts (cfu) of ss18b-lux ([4]; 4.8 μM): 1–2 log
NNC(=O)c1ccncc1 [isoniazid]	–	–	increase in luminescence	no significant bactericidal activity	–	–	–
CC(C)[C@H]1CO[C@]23CCN(Cc4ccc(C(F)(F)F)cc4)C[C@H]2CCC(=O)N13 [Compound 11, (3S,7aR,11aR)-3-Isopropyl-9-[[4-(trifluoromethyl)phenyl]methyl]-2,3,6,7,7a,8,10,11-octahydrooxazolo[2,3-j][1,6]naphthyridin-5-one]	did not interfere with larval development or show any toxicity	0.3	time-dependent decrease in luminescence	concentration-dependent killing	concentration-dependent shutdown in bacterial ATP concentrations	100 (≈ 39.6 µg/mL)	logD [6]: 3.9; bactericidal activity by cfu at 1× MIC [7]: bacteriostatic; drop in cfu after 1 week [7]: ~0.8 log; drop in cfu after 2 weeks [7]: ~2.0 log; drop in bacterial counts (cfu) of ss18b-lux ([4]; 4.8 μM): 1–2 log
COc1nc2ccc(Br)cc2cc1[C@@H](c1ccccc1)[C@@](O)(CCN(C)C)c1cccc2ccccc12 [bedaquiline]	–	–	time-dependent decrease in luminescence	bactericidal	concentration-dependent shutdown in bacterial ATP concentrations	–	Mtb NADH/NAD+ ratio relative to untreated bacteria [3]: increase in the NADH/NAD^+ ratio; bactericidal activity by cfu at 1× and 2× MIC ([7]; H37Rv, 1× and 2× MIC (250 and 500 nM), 2 week exposure period): largely bacteriostatic; drop in bacterial counts (cfu) of ss18b-lux ([4]; 1 μM, stated as similar to 11 and 12 at 4.8 μM): 1–2 log
CC(C)[C@H]1CO[C@]23CCN(Cc4ccccc4)C[C@H]2CCC(=O)N13 [Compound 1, (3S,7aR,11aR)-9-Benzyl-3-isopropyl-2,3,6,7,7a,8,10,11-octahydrooxazolo[2,3-j][1,6]naphthyridin-5-one]	–	–	–	–	–	> 100	metabolic stability (in words) [9]: high clearance
